The record followed here is patent publication US12503448B2, “Antibacterial and antiparasitic quinoxaline-2,3-diamine derivatives” (University College Cardiff Consultants Limited, priority 2019, dated 2025).

In brackets after ≈: the same amount, converted by molar mass. Like-named read-outs stand apart in the source and are kept apart here.

The subject of series [1] is S. mansoni adult worms. Nature of the series: Adult worm drug screen (WHO scoring, WormassayGP2). It is filed as cell-based, Schistosoma mansoni. The following applies: for Selectivity Index Adult: HepG2 CC50 over adult worm EC50; for EC50: Schistosoma mansoni, adult worms. The source says: Mice (MF-1 mice, Harlan, UK), infected 7 weeks previously with 180 cercaria, were euthanised with an intraperitoneal injection of phenobarbital/heparin solution. Adult worms were recovered by perfusion of the portal system and subjected to drug screening as previously described in Padalino G, Ferla S, Brancale A, Chalmers I W, Hoffmann K F. Int J Parasitol Drugs Drug Resist. 2018 December; 8(3):559-570; in Whiteland H L, Chakroborty A, Forde-Thomas J E, Crusco A, Cookson A, Hollinshead J, Fenn C A, Bartholomew B, Holdsworth P A, Fisher M, Nash R J, Hoffmann K F. Int J Parasitol Drugs Drug Resist. 2018 December; 8(3):465-474; and in Crusco A, Bordoni C, Chakroborty A, Whatley K C L, Whiteland H, Westwell A D, Hoffmann K F. Eur J Med Chem. 2018 May 25; 152:87-100. The data obtained in this manner is shown in Table 1 in the columns labelled “Adult worm”.
Regarding the quantification of drug treatment on adult worms (e.g. decreased activity, paralysis or sluggishness), two different approaches were used, as described below. Where egg deposition was noticed, eggs were removed and counted using a Sedgewick rafter slide.
Adult worms were scored using the standardized microscopic WHO-TDR scoring system previously described by Ramirez, B., Bickle, Q., Yousif, F., Fakorede, F., Mouries, M.-A., Nwaka, S. in Schistosomes: Challenges in compound screening, Expert Opin Drug Discov. 2007 October; 2(s1): S53-61. This scoring system (0-4) identifies changes in worm movement and is defined according to the following scoring matrix: 0=no movement, 1=no movement with visible gut peristalsis, 2=minimal movement (occasional movement from anterior or posterior end of the worm), 3=slow continuous movement and 4=normal movement.
A digital image processing-based system was also used to assess parasite motility after drug treatment and is a modification of methods previously described by Marcellino C., Gut, J., Lim, K., Singh R., McKerrow, L. and Sakanari, J. WormAssay: a novel computer application for whole-plate motion-based screening of macroscopic parasites. PLoS Negl Trop Dis. 2012 January:6(1):e1494. This allowed for objective verification of the WHO method described above. The data obtained with this quantification method is shown in Table 1 in the columns labelled “Adult worm”.

The subject of series [2] is S. mansoni schistosomula. As to the kind of experiment: 72 hours schistosomula drug screen. It is filed as cell-based, Schistosoma mansoni. The settings on record: for Selectivity Index Schistosomula: HepG2 CC50 over schistosomula EC50; for EC50: Schistosoma mansoni. As to the method: Biological Screening 72 Hours Schistosomula Drug Screen […] G. Colley, […], Schistosoma mansoni: simplified method for the production of schistosomules., Exp. Parasitol. 35 (1974) 44-51. Newly transformed schistosomula were prepared for 72 hour high throughput screening (HTS) in 384-well black-sided microtiter plates (Perkin Elmer, MA, USA) as described in M. Nur-e-alam, M. Yousaf, […]. Bari, H. A. Ghabbour, […]. Ho, A. J. […], Neoclerodane Diterpenoids from […], Teucrium […]. Nat. […] The data obtained in this manner is shown in Table 1 in the columns labelled “Phenotype”, “Motility” and “Schistosomula average”.

Series [3] can be described thus: MTT assay on HepG2 cells. It counts as cell-based. The settings on record: human. The method, then:
MTT Assay on HepG2 Cells Human Hepatocyte Carcinoma (HepG2) cells (85011430, Sigma Aldrich) were used to assess the overt toxicity of these anti-infective compounds. […] A negative control (1% v/v Triton X-100; X100, Sigma-Aldrich) was also included in each screen. After addition of compounds, each plate was then incubated for a further 20 hrs before application of MTT reagent (prepared as described in Nur-[…], Bari A, Ghabbour […], Hoffmann […] Nat Prod. 2017 Jun. 23; 80(6):1900-1908 for the assessment of compound cytotoxicity using the MTT assay. […] The plate was then further incubated for 4 hrs. After incubation, each plate was blotted dry under the laminar flow to remove the MTT treated culture media. A 100 μl DMSO: isopropanol (1:1) solution was then added to each well and the plate was then subsequently incubated for 10 minutes at 37° C. Following incubation, each plate was shaken again and then absorbance measured at 570 nm. The absorbance reading was corrected based on the average value of the wells used as blank (no cells). […] The data obtained in this manner is shown in Table 1 in the columns labelled “HepG2”. […] The selectivity indexes for schistosomula and adult worms are shown in the final two columns in Table 1.
(Tetrazolium dyes change colour on reduction, which living cells bring about.)

Series [4] deals with F. hepatica newly excysted juveniles (NEJs). As to the kind of experiment: Newly excysted juveniles (NEJs) drug screen. It is filed as cell-based, Fasciola hepatica. More on the design: scale not given here. The following applies: 10 μM, 72 h; higher score indicates lower worm activity. The method, then: Newly Excysted Juveniles (NEJs) Drug Screen
F. hepatica (Italian strain) metacercariae were obtained from Ridgeway Research, Gloucestershire, UK and stored at 4° C. Newly excysted juveniles (NEJs) from metacercariae were produced based on an optimisation introduced to the excystment method published by Dixon et al. and Wilson et al (Dixon, K. E., The physiology of excystment of the metacercaria of Fasciola hepática L. Parasitology, 1966, 56, 431-456.; Wilson, L. R., Good, R. T., Panaccio, M., Wijffels, G. L., Sandeman, R. M., Spithill, T. W, Fasciola hepatica: Characterization and Cloning of the Major Cathepsin B Protease Secreted by Newly Excysted Juvenile Liver Fluke. Experimental Parasitology 1998, 88, 85-94).
After excystment, NEJs were distributed into a 24 well tissue culture plate at a density of 25 parasites per well containing 1 mL of pre-warmed NEJs culture media. Compounds were added to respective wells and NEJ/compound co-cultures were incubated at 37° C. in an atmosphere containing 5% CO2 for 72 hours at a final concentration of 10 μM.
F. hepatica NEJs (25 per well) were incubated with the three compounds at a concentration of 10 μM (in 0.1% DMSO) and cultured for 72 hrs at 37° C. in an atmosphere containing 5% CO2. Control wells (25 NEJs per well) included those containing 0.1% DMSO (solvent) and RMPI (media) as negative controls or 10 μM Triclabendazole (0.1% DMSO, as positive control, labelled “Tbz” (Comp. 3). After 72 hrs, all NEJs were scored for phenotype and motility metrics. For each treatment, an average of both phenotype and motility score was calculated based on the individual parasite scores (across two independent replicates), wherein a higher score indicates lower worm activity. SD is reported on the bar chart.

The nature of series [5]: Metabolic stability in mouse liver microsomes. The settings on record: liver microsomes. (In general: Liver microsomes are vesicles of endoplasmic reticulum, rich in cytochrome P450 enzymes.)
A short description of series [6]: Mouse pharmacokinetics, oral cassette dosing. The following applies: male, C57/BL6, mouse, plasma, po, 2.5 mg/kg. The method, then:
Non-compartmental mouse pharmacokinetics (Male C57/BL6 Mouse, Fasted; 3 mice per group) were determined after oral administration of a nominal dose of 2.5 mg/kg of these formulations in cassettes (5 compounds/group) according to the protocols employed by WuXi (https://www.wuxiapptec.com; the CRO that conducted these studies).

In series [7] the test system is M. smegmatis mc^2 15 ATCC 700084. Nature of the series: In vitro antibacterial activity. It counts as cell-based, Mycobacterium smegmatis. The following applies: Mycolicibacterium smegmatis, ATCC700084.
In series [8] the test system is B. cereus. As to the kind of experiment: In vitro antibacterial activity. The following applies: Bacillus cereus. It is filed as cell-based.
In series [9] the test system is S. aureus ATCC 29213. As to the kind of experiment: In vitro antibacterial activity. It counts as cell-based. The following applies: Staphylococcus aureus, ATCC29213.
For series [10], the system named is Pseudomonas aeruginosa ATCC 27853. As to the kind of experiment: In vitro antibacterial activity. It counts as cell-based. The following applies: Pseudomonas aeruginosa, ATCC27853.
Series [11] can be described thus: Semi thermodynamic solubility. The following applies: thermodynamic from solid.
The subject of series [12] is E. coli ATCC 25922. Nature of the series: In vitro antibacterial activity. It counts as cell-based. The following applies: Escherichia coli, ATCC25922.
In series [13] the test system is S. epidermidis NTCT11077. Nature of the series: In vitro antibacterial activity. It is filed as cell-based. The settings on record: Staphylococcus epidermidis, NTCT11077.
Setting [14] is: schistosomula, 72 hour culture, read-out: EC50 Motility.
Where [15] appears, read: schistosomula, 72 hour culture, read-out: EC50 Phenotype.

On to `O=[N+]([O-])c1ccc2nc(Nc3ccc(F)cc3)c(Nc3ccc(F)cc3)nc2c1` [Compound 6, N^2, N^3-bis(4-fluorophenyl)-6-nitroquinoxaline-2,3-diamine], for which the “Selectivity Index Adult” value in series [1] amounted to 121. Also, the concentration giving a half-maximal response (EC50) in series [1] was determined as 180 nM; in [2] (setting [14]) it was 1400 nM; in series [2] (setting [15]) it was 2140 nM. Moreover, the “Selectivity Index Schistosomula” value in [2] is recorded as 12. The midpoint of cytotoxicity in [3], the CC50 at 24 h, lay at 22 µM.
Regarding `CCCCCC(=O)Nc1ccc2nc(Nc3ccc(Cl)c(Cl)c3)c(Nc3ccc(Cl)c(Cl)c3)nc2c1` [Compound 18, N-(2,3-bis((3,4-dichlorophenyl)amino)quinoxalin-6-yl)hexanamide], in series [1], the “Selectivity Index Adult” value came out at 203. In addition, the EC50 amounted to 320 nM in series [1], 1800 nM in [2] (setting [14]) and 1020 nM in series [2] (setting [15]). Further, the “Motility (M) Mean score” value in [4] was 4.05. In series [4], the “Phenotype (P) Mean score” value worked out at 4.09. In [5], this compound yielded a half-life at 1 μM of 37.1 min. The same compound registered a microsomal CLint at 1 μM in [5] of 37.4 µL/min/mg. For the same compound, the AUC(0-t) in [6] was 68.2 ng·h/mL. In series [6], this compound had a Cmax of 16.4 ng/mL. In series [6], this compound registered an MRT last of 3.86 h. In addition, the Tmax in [6] amounted to 4 h. Besides, the “Selectivity Index Schistosomula” value in series [2] is 46. The MIC90 in series [7] was over 125 µg/mL; in series [8], 125 µg/mL (≈ 222 µM); in series [9], 62.5 µg/mL (≈ 111 µM); in [10] it was over 125 µg/mL; in [12], over 125 µg/mL; in series [13], over 125 µg/mL. Besides, the solubility (thermodynamic) in series [11] is 15.5 µM (≈ 8.73 µg/mL).
With `c1ccc(/N=c2\sc3ccccc3s\c2=N/c2ccccc2)cc1` [Compound 20], the “Selectivity Index Schistosomula” value in series [2] was 3. The EC50 in series [2] (average of phenotype and motility, read-out: EC50 Schistosomula average) is 4410 nM; in series [2] (setting [14]), 4510 nM; in series [2] (setting [15]) it was 4310 nM. For the same compound, in [3], it took 13.8 µM to reach half-maximal cytotoxicity (CC50 at 24 h).
Take `Cc1cccc(Nc2nc3ccc([N+](=O)[O-])cc3nc2Nc2cccc(C)c2)c1` [Compound 21]: the “Selectivity Index Schistosomula” value in series [2] came out at 11. The results for the EC50 in series [2] (setting [14]) and in [2] (setting [15]) were 1230 nM and 1620 nM, respectively. This compound came in with a CC50 at 24 h in [3] of 15.6 µM.

As a reminder, the EC50 is the concentration that produces a half-maximal response. Usually CC50 stands for the concentration that lowers cell viability or growth by half. A word on the half-life: it is how long it takes for the measured level to halve. As usually defined, the microsomal CLint is a measure of how fast metabolising enzymes remove a compound, apart from limits set by blood flow. The term AUC(0-t) denotes the area under the concentration-time curve up to a stated or last time point. In general, Cmax refers to the peak of the concentration-time curve. Broadly, the MRT last is a mean duration of stay, worked out from the concentration-time curve. As usually defined, the Tmax is the time at which the peak concentration occurs. A word on the MIC90: it is the lowest concentration that inhibits either 90% of growth or 90% of the strains tested, depending on the study. A word on the solubility (thermodynamic): it is the concentration in solution at equilibrium with solid.
